Series [1] is described as follows: Stability of solid forms in stabilization chamber (appearance or XRPD versus initial solid form). The note with it: for Physical stability (solid form): 3.0 g sample, appearance or XRPD compared with initial solid form. Type of series: physicochemical. The procedure: 3.0 g of ruxolitinib free base in different solid forms was stored in a stabilization chamber, and placed in the condition that the temperature and humidity were controlled to at 25° C., 60% RH, and 40° C., 75% RH for […], respectively. The samples were analyzed by appearance or XRPD to check its solid form and compared with its initial solid form.

Series [2] can be described thus: Storage of crystal in polyethylene self-sealing bag, XRPD pattern. Type of series: physicochemical. To be noted: 30-35° C. for 3 months, transparent polyethylene self-sealing bag, 10.0 g. The protocol: In addition, 10.0 g of crystal of compound of formula I of Example 1 was placed in a transparent polyethylene self-sealing bag and allowed to stand at 30-35° C. for 3 months.

As to `N#CC[C@H](C1CCCC1)n1cc(-c2ncnc3[nH]ccc23)cn1` [Compound of Formula I of Example 1, ((3R)-3-cyclopentyl-3-[4-(7H-pyrrolo[2,3-d]pyrimidin-4-yl)pyrazol-1-yl]propionitrile)·2H2O], the “Stability compared with ruxolitinib foam and amorphous form of Example 5” value in series [1] (25° C., 60% RH for 2 hours and 40° C., 75% RH for 8 hours, summary of Table 4) was “better stability”. Besides, the “Physical stability (solid form)” value in series [1] (25° C./60%-RH, 2 hours) is recorded as “No change of solid form”; in series [1] (40° C./75%-RH, 8 hours), “No change of solid form”. Also, the “Stability of crystalline form by XRPD” value in series [2] is listed as “remains stable”.

As to `N#CC[C@H](C1CCCC1)n1cc(-c2ncnc3[nH]ccc23)cn1` [Foam], the “Physical stability (hygroscopicity observation)” value in series [1] (25° C./60%-RH, 2 hours) is given as “hygroscopic”; in series [1] (40° C./75%-RH, 8 hours) it was “hygroscopic”. Besides, the “Physical stability (solid form)” value was “Change of solid form,” in series [1] (25° C./60%-RH, 2 hours) and “Change of solid form,” in series [1] (40° C./75%-RH, 8 hours).

(Values after patent US20240166654A1, “RUXOLITINIB CRYSTAL AND PHARMACEUTICAL COMPOSITION THEREOF” (ZHEJIANG AUSUN PHARMACEUTICAL CO., LTD., priority 2022, published 2024).)
